Test results reported in ChEMBL document CHEMBL3286265, “Three new anti-proliferative Annonaceous acetogenins with mono-tetrahydrofuran ring from graviola fruit (Annona muricata)” (Bioorg Med Chem Lett, 2014).
Calls of active or inactive are those of the source. The calls are words filed in the database; no cut-off is given here.

System: PC-3
Test: Antiproliferative activity against human PC3 cells at 20 ug/ml after 24 hrs by MTT assay
Type: functional, cell-based

SMILES	inhibition
CCCCCCCC(O)CCCCCCC[C@@H](O)[C@H]1CC[C@H]([C@H](O)CCCCCCC[C@H](O)CC2=C[C@H](C)OC2=O)O1 (stereo partly drawn)	Active
CCCCCCCC[C@@H](O)[C@@H](O)CC[C@H](O)[C@H]1CC[C@H](CCCCCCCCCCC[C@H](O)CC2=C[C@H](C)OC2=O)O1	Active
CCCCCCCCCCCC[C@H](O)[C@H]1CC[C@H]([C@H](O)CC(O)CCCCCCCC[C@H](O)CC2=C[C@H](C)OC2=O)O1 (stereo partly drawn)	Active
